Assay results: patent US10011572B2, “Monocyclic isoxazolines as inhibitors of cholesterol ester transfer protein” (Merck Sharp & Dohme Corp., priority 2014, dated 2018)
Like-named read-outs stand apart in the source and are kept apart here.

Target: T1, endogenous CETP from serum (Homo sapiens, UniProt P11597)
T1 construct: yielding a concentration of approximately 15 nM endogenous CETP in the assay; from tissue; host or cells: human serum
T1 sequence (P11597 18-493): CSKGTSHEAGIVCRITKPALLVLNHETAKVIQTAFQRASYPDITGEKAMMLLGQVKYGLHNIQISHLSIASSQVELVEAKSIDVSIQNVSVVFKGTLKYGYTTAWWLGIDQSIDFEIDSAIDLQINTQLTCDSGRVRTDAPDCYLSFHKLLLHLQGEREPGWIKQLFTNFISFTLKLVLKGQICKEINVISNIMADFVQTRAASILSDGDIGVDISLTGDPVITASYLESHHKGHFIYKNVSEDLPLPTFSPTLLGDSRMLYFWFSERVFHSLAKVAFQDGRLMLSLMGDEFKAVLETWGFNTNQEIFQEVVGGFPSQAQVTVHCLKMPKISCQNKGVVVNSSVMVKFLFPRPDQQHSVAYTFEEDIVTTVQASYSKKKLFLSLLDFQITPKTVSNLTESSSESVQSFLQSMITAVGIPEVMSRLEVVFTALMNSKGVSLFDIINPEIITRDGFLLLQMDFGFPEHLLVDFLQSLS
Experiment: RTA assay in 95% human serum (in vitro radioactive assay of CETP-catalyzed CE and TG transfer, endogenous CETP)
Format: biochemical
Experimental: In Vitro Radioactive Assays of CETP-Catalyzed CE and TG Transfer (RTA Assay)
Reagents and sources are: [3H] cholesteryl oleate (GE #TRK.886), [3H] Triolein (Perkin-Elmer NET-431), Butylated hydroxyl toluene (Aldrich, #D4740-4), DOPC (Sigma, # P6354), Sodium Bromide (Fisher scientific #S255-500), PEG 8000 (Fisher, #BP233-1), and human HDL (Intracel Corp #RP-036).
An in vitro assay for determining IC50's to identify compounds that inhibit CETP transfer activity is performed based on a modification of a published method (Morton and Zilversmit, (1981) A plasma inhibitor of triglyceride and cholesteryl ester transfer activities, J. Biol. Chem. 256(23), 11992-11995). The ability of inhibitors to alter CETP activity is performed using two different assays: one using recombinant CETP and one using an endogenous plasma source of CETP. Both assays measure the transfer of [3H] cholesteryl oleate or [3H] triolein from exogenous LDL to HDL.
Radiolabeled donor particles are generated by first combining 100 μl of 200 μM butylated hydroxyl toluene in CHCl3, 216 μL of 21.57 mM DOPC in EtOH, and either 500 μCi [3H]-triolein (Perkin Elmer #NET-431) or 500 μCi [3H]-cholesteryl oleate (GE #TRK886) in a glass tube. Reagents are mixed, dried under nitrogen, and then resuspended in 2 mL of 50 mM Tris, 27 μM EDTA at pH 7.4. After a brief vortex, the solution is sonicated until clear and mixed with 20 mL of fresh human serum. The mixture is incubated overnight at 37° C. The [3H] labeled LDL substrate is separated at 1.063 g/ml density by sequential ultracentrifugal flotation in NaBr according to the method of Havel, Eder, et al., 1955, and Chapman, Goldstein, et al., 1981. Once isolated the particles are dialyzed 3× in CETP buffer (50 mM Tris, pH 7.4, 100 mM NaCl, 1 mM EDTA). Human HDL is purchased from Intracel and used as the acceptor particles.
Transfer assays are performed in a 96-well v-bottom polypropylene plate. For the RTA using recombinant CETP (2% RTA), an assay cocktail is prepared with the final concentrations 128 μg/mL HDL, 20 nM rCETP, 2% human serum, and 1×CETP buffer. 1 μL of each test compound diluted in DMSO is added to 47 μL of assay cocktail per well and incubated at 37° C. for 1 hour. To initiate the transfer reaction, 2 μL radiolabeled LDL is added. After an additional 60 min of incubation at 37° C., the transfer action is terminated by precipitation of LDL with an equal volume of 20% WN PEG 8000. The plates are centrifuged at 2000 rpm for 30 minutes at 4° C. A 40 μL aliquot of the HDL-containing supernatant is transferred to a Packard Optiplate™ with 200 μL of MicroScint™ 20. After mixing, plates are counted by liquid scintillation. Counts present in the supernatant for blanks (wells containing only HDL acceptor, CETP buffer and DMSO) are subtracted from those containing test compounds and used to correct for non-specific transfer.
For the transfer assay using endogenous CETP from serum (95% RTA), the same procedure is used except that human serum is added such that a final concentration of serum of 95% of the total assay volume is achieved, yielding a concentration of approximately 15 nM endogenous CETP in the assay. This is then combined with HDL and CETP buffer and the reaction proceeds as above and is terminated as described.
Comparison of the counts of samples with inhibitors to an uninhibited (DMSO only) positive control yield a percent inhibition. A plot of percent inhibition vs. log of inhibitor concentration, fit to a Sigmoidal 4 parameter equation is used to calculate IC50.
Starting materials are commercially available or are made using known procedures or as shown below. The examples may be synthesized according to the general schemes provided below and by using the synthetic intermediates that are described. The data reported for the examples below were obtained using the RTA assay in 95% human serum.

[1] = read-out: IC50 (nM) RTA with 95% HS

## COc1ncc(-c2c(C)cc(C(=O)O)cc2C)cc1-c1ccc(C(F)(F)F)cc1CC1=NO[C@H](c2cc(C(F)(F)F)cc(C(F)(F)F)c2)[C@@H]1C [Example 13, 4-(5-(2-(((4R,5S)-5-(3,5-bis(trifluoromethyl)phenyl)-4-methyl-4,5-dihydroisoxazol-3-yl)methyl)-4-(trifluoromethyl)phenyl)-6-methoxypyridin-3-yl)-3,5-dimethylbenzoic acid]
[1]
  IC50: 343 nM

## COc1ccc(-c2ccc(C(=O)O)cc2C)cc1-c1ccc(C(F)(F)F)cc1CC1=NO[C@H](c2cc(C(F)(F)F)cc(C(F)(F)F)c2)[C@@H]1C [Example 3B, 2″-(((4R,5S)-5-(3,5-bis(trifluoromethyl)phenyl)-4-methyl-4,5-dihydroisoxazol-3-yl)methyl)-4′-methoxy-2-methyl-4″-(trifluoromethyl)-[1,1′:3′,1″-terphenyl]-4-carboxylic acid]
read-out: IC50 RTA (95% HS)
  IC50: 293 nM

## COc1ncc(-c2ccc(C(=O)O)cc2C)cc1-c1ccc(C(F)(F)F)cc1CC1=NO[C@H](c2cc(C(F)(F)F)cc(C(F)(F)F)c2)C1 [Example 6, 4-{5-[2-({(5S)-5-[3,5-bis(trifluoromethyl)phenyl]-4,5-dihydroisoxazol-3-yl}methyl)-4-(trifluoromethyl)phenyl]-6-methoxypyridin-3-yl}-3-methylbenzoic acid]
[1]
  IC50: 537 nM

## COc1ncc(-c2ccc(C(=O)O)cc2C)cc1-c1cnc(C(F)(F)F)cc1CC1=NO[C@H](c2cc(C(F)(F)F)cc(C(F)(F)F)c2)C1 [Example 7, (S)-4-[4′-({5-[3,5-bis(trifluoromethyl)phenyl]-4,5-dihydroisoxazol-3-yl}methyl)-2-methoxy-6′-(trifluoromethyl)-3,3′-bipyridin-5-yl]-3-methylbenzoic acid]
[1]
  IC50: 4970 nM

## COc1cc(F)c(C(C)C)cc1-c1ccc(C(F)(F)F)cc1CC1=NO[C@H](c2cc(C(F)(F)F)cc(C(F)(F)F)c2)C1 [Example 4, (5S)-5-[3,5-bis(trifluoromethyl)phenyl]-3-{[4′-fluoro-2′-methoxy-5′-(1-methylethyl)-4-(trifluoromethyl)biphenyl-2-yl]methyl}-4,5-dihydroisoxazole]
[1]
  IC50: 1290 nM

## COc1ncc(-c2ccc(C(=O)O)cc2C)cc1-c1ccc(C(F)(F)F)cc1CC1=NO[C@H](c2ccnc(C(F)(F)F)c2)C1 [Example 9, (S)-4-{6-methoxy-5-[4-(trifluoromethyl)-2-({5-[2-(trifluoromethyl)pyridin-4-yl]-4,5-dihydroisoxazol-3-yl}methyl)phenyl]pyridin-3-yl}-3-methylbenzoic acid]
[1]
  IC50: 6500 nM

## COc1ccc(CCC(=O)O)cc1-c1ccc(C(F)(F)F)cc1CC1=NO[C@H](c2cc(C(F)(F)F)cc(C(F)(F)F)c2)C1 [Example 5, 3-[2′-({(5S)-5-[3,5-bis(trifluoromethyl)phenyl]-4,5-dihydroisoxazol-3-yl}methyl)-6-methoxy-4′-(trifluoromethyl)biphenyl-3-yl]propanoic acid]
[1]
  IC50: 1500 nM

## COc1ncc(-c2ccc(C(=O)O)cc2C)cc1-c1ccc(C(F)(F)F)cc1CC1=NO[C@H](c2cc(C(F)(F)F)cc(C(F)(F)F)c2)[C@@H]1C [Example 14, 4-(5-(2-(((4R,5S)-5-(3,5-bis(trifluoromethyl)phenyl)-4-methyl-4,5-dihydroisoxazol-3-yl)methyl)-4-(trifluoromethyl)phenyl)-6-methoxypyridin-3-yl)-3-methylbenzoic acid]
[1]
  IC50: 169 nM

## COc1ccc(-c2cc(-c3ccc(C(=O)O)cc3C)cnc2OC)c(CC2=NO[C@H](c3cc(C(F)(F)F)cc(C(F)(F)F)c3)C2)n1 [Example 12, (S)-4-[2′-({5-[3,5-bis(trifluoromethyl)phenyl]-4,5-dihydroisoxazol-3-yl}methyl)-2,6′-dimethoxy-3,3′-bipyridin-5-yl]-3-methylbenzoic acid]
[1]
  IC50: 880 nM

## COc1ccc(-c2cc(-c3ccc(C(=O)O)cc3C)ccc2OC)c(CC2=NO[C@H](c3cc(C(F)(F)F)cc(C(F)(F)F)c3)C2)n1 [Example 11, (S)-3′-[2-({5-[3,5-bis(trifluoromethyl)phenyl]-4,5-dihydroisoxazol-3-yl}methyl)-6-methoxypyridin-3-yl]-4′-methoxy-2-methylbiphenyl-4-carboxylic acid]
[1]
  IC50: 176 nM

## COc1cc(F)c(-c2ccc(C(=O)O)cc2C)cc1-c1ccc(C(F)(F)F)cc1CC1=NO[C@@H](c2cc(C(F)(F)F)cc(C(F)(F)F)c2)C1 [Example 1B, (R)-2″-((5-(3,5-bis(trifluoromethyl)phenyl)-4,5-dihydroisoxazol-3-yl)methyl)-6′-fluoro-4′-methoxy-2-methyl-4″-(trifluoromethyl)-[1,1′:3′,1″-terphenyl]-4-carboxylic acid]
read-out: IC50 RTA (95% HS)
  IC50: 1600 nM

## COc1cc(F)c(-c2ccc(-c3n[nH]c(=O)o3)cc2C)cc1-c1ccc(C(F)(F)F)cc1CC1=NO[C@H](c2cc(C(F)(F)F)cc(C(F)(F)F)c2)C1 [Example 2, (S)-5-(2″-((5-(3,5-bis(trifluoromethyl)phenyl)-4,5-dihydroisoxazol-3-yl)methyl)-6′-fluoro-4′-methoxy-2-methyl-4″-(trifluoromethyl)-[1,1′:3′,1″-terphenyl]-4-yl)-1,3,4-oxadiazol-2(3H)-one]
read-out: IC50 RTA (95% HS)
  IC50: 167 nM

## COc1ncc(-c2ccc(C(=O)O)cc2C)cc1-c1ccc(C(F)(F)F)nc1CC1=NO[C@H](c2cc(C(F)(F)F)cc(C(F)(F)F)c2)C1 [Example 10, (S)-4-[2′-({5-[3,5-bis(trifluoromethyl)phenyl]-4,5-dihydroisoxazol-3-yl}methyl)-2-methoxy-6′-(trifluoromethyl)-3,3′-bipyridin-5-yl]-3-methylbenzoic acid]
[1]
  IC50: 400 nM

## COc1cc(F)c(-c2ccc(C(=O)O)cc2C)cc1-c1ccc(C(F)(F)F)cc1CC1=NO[C@H](c2cc(C(F)(F)F)cc(C(F)(F)F)c2)C1 [Example 1A, (S)-2″-((5-(3,5-bis(trifluoromethyl)phenyl)-4,5-dihydroisoxazol-3-yl)methyl)-6′-fluoro-4′-methoxy-2-methyl-4″-(trifluoromethyl)-[1,1′:3′,1″-terphenyl]-4-carboxylic acid]
read-out: IC50 RTA (95% HS)
  IC50: 37 nM

## COc1ccc(-c2ccc(C(=O)O)cc2C)cc1-c1cnc(C(F)(F)F)cc1CC1=NO[C@H](c2cc(C(F)(F)F)cc(C(F)(F)F)c2)C1 [Example 8, (S)-3′-[4-({5-[3,5-bis(trifluoromethyl)phenyl]-4,5-dihydroisoxazol-3-yl}methyl)-6-(trifluoromethyl)pyridin-3-yl]-4′-methoxy-2-methylbiphenyl-4-carboxylic acid]
[1]
  IC50: 1070 nM
